Where two headings read alike, the source gives them in different places.
Assays:
HIV-1 [1] = conditions: read-out: EC50 HIV-1
[2] = system: HIV-1 AZT^R strain (67N, 70R, 215F, 219Q); test: microbe, parasite or virus in culture; type: cell-based, Human Immunodeficiency Virus type-1; conditions: read-out: EC50 AZT^R
[3] = system: HIV-1 N119 (Y181C mutant); test: microbe, parasite or virus in culture; type: cell-based, Human Immunodeficiency Virus type-1; conditions: read-out: EC50 N119
[4] = system: HIV-1 EFV^R (K103R + V179D + P225H mutant); test: microbe, parasite or virus in culture; type: cell-based, Human Immunodeficiency Virus type-1; conditions: read-out: EC50 EFV^R
[5] = system: HIV-1 A17 (K103N + Y181C mutant); test: microbe, parasite or virus in culture; type: cell-based, Human Immunodeficiency Virus type-1; conditions: read-out: EC50 A17
[6] = system: HIV-1 MDR strain (74V, 41L, 106A, 215Y); test: microbe, parasite or virus in culture; type: cell-based, Human Immunodeficiency Virus type-1; conditions: read-out: EC50 MDR
in vitro [7] = conditions: human
VV = test: microbe, parasite or virus in culture; type: cell-based; conditions: Orthopoxvirus vaccinia, Vero 76, read-out: VV EC50
YFV = test: microbe, parasite or virus in culture; type: cell-based; conditions: Yellow fever virus, BHK, read-out: YFV EC50
Reo-1 = test: microbe, parasite or virus in culture; type: cell-based, reovirus type-1; conditions: Reovirus sp., BHK, read-out: Reo-1 EC50
CCRF-SB = test: Cytotoxicity against leukaemia/lymphoma cell lines, MTT; conditions: Homo sapiens, 96 h, read-out: CC50 CCRF-SB
[8] = system: cell lines derived from human haematological tumours; test: Cytotoxicity against cell lines derived from human haematological tumours, MTT; type: cell-based; conditions: CCRF-CEM, WIL-2NS, CCRF-SB, read-out: CC50 range over cell lines derived from human haematological tumours
Protocol: Cell lines derived from human haematological tumours [CD4+ human acute T-lymphoblastic leukaemia (CCRF-CEM), human splenic B-lymphoblastoid cells (WIL-2NS), human acute B-lymphoblastic leukaemia (CCRF-SB)] were seeded at an initial density of 1 × 10^5 cells/mL in 96 well plates in RPMI-1640 medium supplemented with 10% foetal calf serum (FCS), 100 units/mL penicillin G and 100 μg/mL streptomycin. Cell viability was determined after 96 h at 37 °C by the MTT method. All cell cultures were then incubated at 37 °C in a humidified, 5% CO2 atmosphere, in the absence or presence of serial dilutions of test compounds in culture medium. Before dilutions, compounds were dissolved in DMSO at 100 mM.

CV-B5 = test: microbe, parasite or virus in culture; type: cell-based, coxsackievirus B5; conditions: Enterovirus B, CVB5, Vero 76, read-out: CV-B5 EC50
in vitro [9] = conditions: cattle (Bos taurus)
HSV-1 = test: microbe, parasite or virus in culture; type: cell-based, human herpes 1; conditions: Human alphaherpesvirus 1, Vero 76, read-out: HSV-1 EC50
HIV-1 [10] = test: microbe, parasite or virus in culture; conditions: Human immunodeficiency virus 1, MT4, read-out: HIV-1 EC50
RSV = test: microbe, parasite or virus in culture; type: cell-based, human respiratory syncytial virus; conditions: human respiratory syncytial virus, Vero 76, read-out: RSV EC50
WIL-2NS = test: Cytotoxicity against leukaemia/lymphoma cell lines, MTT; conditions: Homo sapiens, WIL2-NS, 96 h, read-out: CC50 WIL-2NS
in vitro [11] = conditions: African green monkey (Cercopithecus aethiops)
VSV = test: microbe, parasite or virus in culture; type: cell-based; conditions: Vesicular stomatitis virus, Vero 76, read-out: VSV EC50
CCRF-CEM = test: Cytotoxicity against leukaemia/lymphoma cell lines, MTT; conditions: Homo sapiens, 96 h, read-out: CC50 CCRF-CEM
BVDV = test: microbe, parasite or virus in culture; type: cell-based, bovine viral diarrhoea virus; conditions: Bovine viral diarrhea virus isolates and strains, MDBK, in Bos taurus, read-out: BVDV EC50
in vitro [12] = conditions: Syrian hamster (Mesocricetus auratus)
Sb-1 = test: microbe, parasite or virus in culture; type: cell-based, poliovirus type-1; conditions: Enterovirus C, Vero 76, read-out: Sb-1 EC50
Cytotoxicity, MTT method [13] = conditions: cattle (Bos taurus)
Cytotoxicity, MTT method [14] = conditions: human
Cytotoxicity, MTT method [15] = conditions: African green monkey (Cercopithecus aethiops)
BHK cells = test: Cytotoxicity, MTT method; conditions: read-out: BHK CC50; reduce the proliferation of mock-infected BHK cells by 50% (Table 6)
Cytotoxicity, MTT method [16] = conditions: Syrian hamster (Mesocricetus auratus)

| SMILES | EC50 (VV) | EC50 (YFV) | EC50 (Reo-1) | CC50 (CCRF-SB) | EC50 (CV-B5) | EC50 (HSV-1) | EC50 (HIV-1 [10]) | EC50 (RSV) | CC50 (WIL-2NS) | EC50 (VSV) | CC50 (CCRF-CEM) | EC50 (BVDV) | EC50 (Sb-1) | CC50 (Cytotoxicity, MTT method [13]) | CC50 (Cytotoxicity, MTT method [14]) | CC50 (Cytotoxicity, MTT method [15]) | CC50 (BHK cells) | CC50 (Cytotoxicity, MTT method [16]) | further results |
| --- | --- | --- | --- | --- | --- | --- | --- | --- | --- | --- | --- | --- | --- | --- | --- | --- | --- | --- | --- |
| Cc1cn([C@H]2C[C@H](N=[N+]=[N-])[C@@H](CO)O2)c(=O)[nH]c1=O [AZT] | – | – | – | – | – | – | – | – | – | – | – | – | – | – | – | – | – | – | EC50 (HIV-1 [1]): 0.022 ± 0.004 µM; CC50 (MT-4 cells): 45 µM; EC50 [2]: 0.35 ± 0.04 µM; EC50 [3]: 0.025 ± 0.004 µM; EC50 [4]: 0.02 ± 0.001 µM; EC50 [5]: 0.01 ± 0.001 µM; EC50 [6]: 0.08 ± 0.006 µM |
| S=C(NCCc1c[nH]c2ccccc12)Nc1ccc(I)cc1 [Compound 21, 1-(2-(1H-Indol-3-yl)ethyl)-3-(4-iodophenyl)thiourea] | > 11 µM | > 11 µM | > 11 µM | 12 ± 1.6 µM | > 11 µM | > 11 µM | > 2.4 µM | > 11 µM | 5.8 ± 1 µM | > 11 µM | 5 ± 0.8 µM | > 100 µM | > 11 µM | – | – | – | – | – | CC50 (in vitro [7]): 2.4 ± 0.2 µM; CC50 [8]: 5 to 12 µM; CC50 (in vitro [9]): > 100 µM; CC50 (in vitro [11]): 11 µM; CC50 (in vitro [12]): 11 µM; melting point: 162 to 165 °C |
| CCNC(=S)NCCc1c[nH]c2ccccc12 [Compound 22, 1-(2-(1H-Indol-3-yl)ethyl)-3-ethylthiourea] | > 100 µM | > 100 µM | > 100 µM | – | > 100 µM | > 100 µM | > 100 µM | > 100 µM | – | > 100 µM | – | > 100 µM | > 100 µM | > 100 µM | > 100 µM | > 100 µM | > 100 µM | > 100 µM | – |
| CNC(=S)NCCc1c[nH]c2ccccc12 [Compound 25, 1-(2-(1H-Indol-3-yl)ethyl)-3-methylthiourea] | > 100 µM | > 100 µM | > 100 µM | – | > 100 µM | > 100 µM | > 100 µM | > 100 µM | – | > 100 µM | – | > 100 µM | > 100 µM | > 100 µM | > 100 µM | > 100 µM | > 100 µM | > 100 µM | – |
| COc1cccc2c1C(=O)c1c(O)c3c(c(O)c1C2=O)C[C@@](O)(C(=O)CO)C[C@@H]3O[C@H]1C[C@H](N)[C@H](O)[C@H](C)O1 [Doxorubicin, reference compound] | – | – | – | 0.03 ± 0.003 µM | – | – | – | – | 0.02 ± 0.003 µM | – | 0.02 ± 0.002 µM | – | – | – | – | – | – | – | – |
